Assay results published in patent publication US8198291B2, “Intranasal opioid compositions” (University of Kentucky Research Foundation, priority 2000, dated 2012).

How the values were obtained:
[1] = Bioavailability/bioequivalence of intranasal butorphanol formulation, unit-dose vs multi-dose spray device; format: in vivo, human
Protocol: This example compares bioavailability of a butorphanol formulation when administered using a unit-dose or multi-dose delivery device. The formulation contains 10 mg butorphanol tartrate, 6.5 mg sodium chloride, 1.0 mg citric acid, 0.20 mg benzethonium chloride in purified water with 1.2 mg sodium hydroxide and hydrochloric acid added to adjust the pH to 5.0. The multi-dose sprayer purports by its label to administer 0.1 ml of liquid composition by metering upon activation by the user. The formulation had the following function and properties when administered to human subjects via the Pfeiffer Unitdose Second Generation spray device.
The second delivery system employed to administer the butorphanol compositions was a unit-dose disposable intranasal applicator that is commercially available from Pfeiffer of America under the designation “Unitdose Second Generation.” Each of the Pfeiffer spray applicators was charged with sufficient liquid to deliver a 0.1 mL dose of the butorphanol test formulation. The glass containers were filled using a pipette under clean conditions, sealed and assembled to the applicator. Each of the applicators was weighed prior to use and after use. Qualified medical personnel administered, one dose into each nostril, after which the applicator was recovered for weighing. In the case of the unit-dose applicators (test formulation), two devices were used for each patient, both of which were discarded following the post-use weighing. The results of these studies of the method and system of the invention and the comparative prior art method follow.
This example assesses the bioequivalence of a butorphanol formulation administered from the unit-dose or multi-dose sprayers described above. The test formulation comprises 1 ml of STADOL NS containing 10 mg butorphanol tartrate, 6.5 mg sodium chloride, 1.0 mg citric acid, 0.20 mg benzethonium chloride in purified water with 1.2 mg sodium hydroxide and hydrochloric acid added to adjust the pH to 5.0. The multi-dose sprayer accompanying STADOL NS purports, by its label, to administer 0.1 ml of liquid. The unit-dose delivery device delivers 0.1 ml of liquid.
The second analysis was to determine whether the intrasubject variabilities of the two spray devices are equal. The study was initiated with 16 subjects, 15 of which completed the study to provide data for this analysis; one subject dropped out after the second period. The following analysis considers both raw and normalized data, with the latter standardized with respect to the dose dispensed.
For both the raw and normalized data, log transformations are applied to the pharmacokinetic endpoints Cmax, AUC ([…]), and AUC(inf.). A mixed effects model was considered for each parameter. Fixed effects for the factors sequence (4 levels), period 3 levels) and formulation (2 levels) were included in the model. Additionally, gender, as well as the interactions between gender and each of sequence, period and formulation was included as a factor in each model to determine whether separate analyses would be necessary for males and females. A total of seven models were considered: Tmax, log of raw Cmax values, log of normalized Cmax values, log transformed values for raw and normalized AUC(last), and log values for raw and normalized AUC(inf.). […] In addition, the lack of significance of the effects included in each model indicate that there was no evidence of unequal carryover between the delivery system of the prior art and that in one embodiment of the present invention.
The mean levels of butorphanol from analysis of the subject's blood plasma reported in pg/ml are plotted against time in FIGS. 1 and 2. The concentration of drug for the unit-dose was unexpectedly higher than that of the multi-dose system. The testing for bioequivalence was done using the method of two one-sided t-test (as described by Bolton, S., Pharmaceutical Statistics. Marcel Dekker, Inc., New York, 1997, pages 415 ff.). […]

[2] = Pharmacokinetics of butorphanol formulation without benzethonium chloride, Pfeiffer Unitdose Second Generation device; format: in vivo, human; conditions: single 2 mg intranasal dose, unit-dose device
Source text: This formulation had the following spray pattern function when sprayed from the Pfeiffer Unitdose Second Generation device onto an impaction plate from at various distances.
The formulation had the following function and properties when administered to human subjects via the Pfeiffer Unitdose Second Generation spray device.

[3] = 2 mg intranasal dose, Pfeiffer Unitdose Second Generation spray device, formulation with benzethonium chloride
[4] = 90% CI, line between normCmax and normAUCinf, exponentiated, unit-dose vs multi-dose
[5] = 90% CI, normalized to dispensed dose, exponentiated, unit-dose vs multi-dose
[6] = 90% CI, raw data, exponentiated, unit-dose vs multi-dose
[7] = 90% confidence interval, unit-dose (test) vs multi-dose (reference)
[8] = intranasal, multi-dose spray pump

O=C(O)C(O)C(O)C(=O)O.Oc1ccc2c(c1)[C@@]13CCCC[C@@]1(O)[C@@H](C2)N(CC1CCC1)CC3 [butorphanol tartrate]
AUC(0-t) [1, 3]: about 10661 pg*hr/ml | Cmax [1, 3]: about 5230 pg/ml | Tmax [1, 3]: about 0.234 hr | log(AUClast) (second line of the table), Lower Conf Limit for Ratio of Test/Reference [1, 4]: 0.921 | log(AUClast) (second line of the table), Upper Conf Limit for Ratio of Test/Reference [1, 4]: 1.290 | log(normAUCinf), Lower Conf Limit for Ratio of Test/Reference [1, 5]: 0.937 | log(normAUCinf), Upper Conf Limit for Ratio of Test/Reference [1, 5]: 1.220 | log(normCmax), Lower Conf Limit for Ratio of Test/Reference [1, 5]: 0.897 | log(normCmax), Upper Conf Limit for Ratio of Test/Reference [1, 5]: 1.589 | log (AUClast), Lower Conf Limit for Ratio of Test/Reference [1, 6]: 1.037 | log (AUClast), Upper Conf Limit for Ratio of Test/Reference [1, 6]: 1.540 | log (Cmax), Lower Conf Limit for Ratio of Test/Reference [1, 6]: 1.031 | log (Cmax), Upper Conf Limit for Ratio of Test/Reference [1, 6]: 1.855 | log(AUCinf), Lower Conf Limit for Ratio of Test/Reference [1, 6]: 1.050 | log(AUCinf), Upper Conf Limit for Ratio of Test/Reference [1, 6]: 1.461 | Tmax, Lower Conf Limit for Ratio of Test/Reference [1, 7]: 0.749 | Tmax, Upper Conf Limit for Ratio of Test/Reference [1, 7]: 1.132 | AUC(0-t) [1, 8]: 9.329 ng·h/mL | Cmax [1, 8]: 4.072 ng/mL | Tmax [1, 8]: 14.7 min | area under the curve from multi-dose device as percent of that of the test (unit-dose) ([1]; multi-dose vs unit-dose device): 90% | higher area under the curve of test device compared to reference device ([1]; unit-dose vs multi-dose device): 10% | higher serum levels of test device compared to reference device ([1]; unit-dose vs multi-dose device): 10% | Tmax [2]: about 0.25 hr
